Test results taken from ChEMBL document CHEMBL1201862, “PubChem BioAssay data set” (2004).
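Compound exposure: 48 hours, 5 concentrations, 96-well plates. The concentration for 50% growth inhibition is given as GI50.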 Activity calls are given as the source filed them. Cut-off read from the data, not from the text of the source: active = GI50 up to about 1.1 µM and inactive = higher.

Key:
Assay in all cases: NCI anticancer screen, dose series, 48 h
T47D = tested on: T47D
SF-268 = tested on: SF-268
NCI-H522 = tested on: NCI-H522
LOX IMVI = tested on: LOX IMVI
TK-10 = tested on: TK-10
SNB-19 = tested on: SNB-19
HL-60 = tested on: HL-60
HOP-92 = tested on: HOP-92
CAKI-1 = tested on: CAKI-1
SNB-75 = tested on: SNB-75
SR = tested on: SR
NCI-H23 = tested on: NCI-H23
OVCAR-5 = tested on: OVCAR-5
COLO 205 = tested on: COLO 205
K562 = tested on: K562
NCI/ADR-RES = tested on: NCI/ADR-RES
OVCAR-4 = tested on: OVCAR-4
MOLT-4 = tested on: MOLT-4
786-0 = tested on: 786-0
Hs-578T = tested on: Hs-578T

Row | Structure (SMILES) | GI50 (T47D) | GI50 (SF-268) | GI50 (NCI-H522) | GI50 (LOX IMVI) | GI50 (TK-10) | GI50 (SNB-19) | GI50 (HL-60) | GI50 (HOP-92) | GI50 (CAKI-1) | GI50 (SNB-75) | GI50 (SR) | GI50 (NCI-H23) | GI50 (OVCAR-5) | GI50 (COLO 205) | GI50 (K562) | GI50 (NCI/ADR-RES) | GI50 (OVCAR-4) | GI50 (MOLT-4) | GI50 (786-0) | GI50 (Hs-578T)
1 | COc1cc(C2c3cc4c(cc3[C@H](OCCN(C)C)[C@@H]3COC(=O)C23)OCO4)cc(OC)c1O (some centres undefined) | 0.369 µM (active) | 0.194 µM (active) | 0.357 µM (active) | 0.0931 µM (active) | 2.51 µM (inactive) | 0.31 µM (active) | < 0.01 µM (active) | 0.0989 µM (active) | 0.0519 µM (active) | 0.307 µM (active) | 0.218 µM (active) | 0.155 µM (active) | 0.738 µM (active) | 1.73 µM (inactive) | 0.713 µM (active) | 2.67 µM (inactive) | 1.84 µM (inactive) | < 0.0123 µM (active) | 0.0614 µM (active) | 1.52 µM (inactive)
2 | COC(=N)C1(C#N)NC(c2ccsc2)C(C#N)(C#N)NC1c1ccsc1 (centres undefined) | 80.2 µM (inactive) | > 100 µM (inactive) | > 100 µM (inactive) | > 100 µM (inactive) | > 100 µM (inactive) | > 100 µM (inactive) | 78.3 µM (inactive) | 60.7 µM (inactive) | > 100 µM (inactive) | 88.5 µM (inactive) | > 100 µM (inactive) | > 100 µM (inactive) | > 100 µM (inactive) | > 100 µM (inactive) | > 100 µM (inactive) | > 100 µM (inactive) | > 100 µM (inactive) | > 100 µM (inactive) | > 100 µM (inactive) | > 100 µM (inactive)
3 | CC1OC(O[C@H]2CC[C@]3(C=O)[C@H]4CC[C@]5(C)[C@H](C6=CC(=O)OC6)CC[C@]5(O)[C@@H]4C=C[C@]3(O)C2)CC(O)C1O (some centres undefined) | 0.524 µM (active) | 0.176 µM (active) | 0.0615 µM (active) | 0.292 µM (active) | 0.29 µM (active) | 0.942 µM (active) | 0.196 µM (active) | 0.577 µM (active) | 0.103 µM (active) | 0.484 µM (active) | 0.0933 µM (active) | 0.143 µM (active) | 0.547 µM (active) | 0.675 µM (active) | 0.294 µM (active) | 0.27 µM (active) | 0.349 µM (active) | 0.083 µM (active) | 0.0871 µM (active) | 0.239 µM (active)
4 | C1C2CC3CC1CC(c1nn4c(C56CC7CC(CC(C7)C5)C6)nnc4s1)(C2)C3 | > 100 µM (inactive) | > 100 µM (inactive) | > 100 µM (inactive) | > 100 µM (inactive) | > 100 µM (inactive) | > 100 µM (inactive) | > 100 µM (inactive) | > 100 µM (inactive) | > 100 µM (inactive) | > 100 µM (inactive) | > 100 µM (inactive) | > 100 µM (inactive) | > 100 µM (inactive) | > 100 µM (inactive) | > 100 µM (inactive) | > 100 µM (inactive) | > 100 µM (inactive) | > 100 µM (inactive) | > 100 µM (inactive) | > 100 µM (inactive)
5 | CN[C@@H](Cc1cccc2ccccc12)C(=O)N[C@@H](CC(C)C)B(O)O | < 0.01 µM (active) | < 0.01 µM (active) | < 0.01 µM (active) | < 0.01 µM (active) | < 0.01 µM (active) | < 0.01 µM (active) | < 0.01 µM (active) | < 0.01 µM (active) | < 0.01 µM (active) | < 0.01 µM (active) | < 0.01 µM (active) | < 0.01 µM (active) | < 0.01 µM (active) | < 0.01 µM (active) | < 0.01 µM (active) | < 0.0224 µM (active) | < 0.01 µM (active) | < 0.01 µM (active) | < 0.01 µM (active) | 0.0143 µM (active)
6 | C[C@@H]1CCC2[C@@H](C)[C@@H](O[C@H]3O[C@@H]4O[C@@]5(C)CCC6[C@H](C)CCC([C@H]3C)[C@]64OO5)O[C@@H]3O[C@@]4(C)CCC1[C@@]23OO4 (some centres undefined) | 1.17 µM (inactive) | > 25 µM (inactive) | 0.861 µM (active) | 0.973 µM (active) | > 20 µM (inactive) | > 25 µM (inactive) | 0.5 µM (active) | 3.63 µM (inactive) | > 25 µM (inactive) | > 10.8 µM (inactive) | 0.724 µM (active) | 1.1 µM (active) | > 25 µM (inactive) | 1.17 µM (inactive) | 1.04 µM (active) | 1.45 µM (inactive) | 7.62 µM (inactive) | 2.17 µM (inactive) | 21.9 µM (inactive) | 7.05 µM (inactive)
7 | CC(=O)OC1CC2(C)C(=CC1C1SCCS1)CCC1C2CCC2(C)C(OC(C)=O)CCC12 (centres undefined) | > 100 µM (inactive) | 26.5 µM (inactive) | 37 µM (inactive) | > 100 µM (inactive) | 64.1 µM (inactive) | 37.1 µM (inactive) | > 100 µM (inactive) | 66.4 µM (inactive) | > 100 µM (inactive) | 13.2 µM (inactive) | > 100 µM (inactive) | > 100 µM (inactive) | > 100 µM (inactive) | > 100 µM (inactive) | > 100 µM (inactive) | > 100 µM (inactive) | > 100 µM (inactive) | > 100 µM (inactive) | > 100 µM (inactive) | 14.6 µM (inactive)
8 | CO[C@H]1C[C@@H]2CC[C@@H](C)[C@@](O)(O2)C(=O)C(=O)N2CCCC[C@H]2C(=O)O[C@H]([C@H](C)C[C@@H]2CC[C@@H](OC(=O)C(C)(CO)CO)[C@H](OC)C2)CC(=O)[C@H](C)/C=C(\C)[C@@H](O)[C@@H](OC)C(=O)[C@H](C)C[C@H](C)/C=C/C=C/C=C/1C [TEMSIROLIMUS] | 0.000995 µM (active) | 0.00873 µM (active) | 0.0802 µM (active) | 0.00327 µM (active) | 0.00262 µM (active) | 0.0258 µM (active) | 2.72 µM (inactive) | 0.00254 µM (active) | 0.0142 µM (active) | 0.0104 µM (active) | 0.000361 µM (active) | 0.00501 µM (active) | 0.00363 µM (active) | 3.98 µM (inactive) | 0.0228 µM (active) | 0.0881 µM (active) | 0.0247 µM (active) | 0.00176 µM (active) | 0.00312 µM (active) | 0.00724 µM (active)
9 | c1cc(C2=NCCO2)c2ccsc2c1 | > 100 µM (inactive) | > 100 µM (inactive) | > 100 µM (inactive) | > 100 µM (inactive) | > 100 µM (inactive) | > 100 µM (inactive) | > 100 µM (inactive) | 41.2 µM (inactive) | > 100 µM (inactive) | 0.0573 µM (active) | > 100 µM (inactive) | > 100 µM (inactive) | > 100 µM (inactive) | > 100 µM (inactive) | > 100 µM (inactive) | > 100 µM (inactive) | > 100 µM (inactive) | > 100 µM (inactive) | > 100 µM (inactive) | 22.7 µM (inactive)
10 | CCCCCCCCCCC(O)C1CCC(C2CCC(C(O)CCCCC(O)CCCCCC(O)CC3=CC(C)OC3=O)O2)O1 (centres undefined) | > 11.8 µM (inactive) | 4 µM (inactive) | 19.1 µM (inactive) | 2.69 µM (inactive) | > 25 µM (inactive) | > 25 µM (inactive) | 2.36 µM (inactive) | > 25 µM (inactive) | > 25 µM (inactive) | 5.16 µM (inactive) | 0.0218 µM (active) |  | > 25 µM (inactive) | > 25 µM (inactive) | > 6.9 µM (inactive) | 2.46 µM (inactive) | > 25 µM (inactive) | 2.97 µM (inactive) | > 25 µM (inactive) | 4.75 µM (inactive)
